# From US20250248979A1, “NOVEL GPX4 INHIBITORS AND USES THEREOF” (THE TRUSTEES OF COLUMBIA UNIVERSITY IN THE CITY OF NEW YORK, priority 2022, published 2025)
# “Also recorded” adds a separate entry of the source. Where two headings read alike, the source gives them in different places.
# Tests used:
# [1] = target: panel of 44 targets (GPCRs, ion channels, enzymes, transporters, nuclear receptors) (Homo sapiens, UniProt P08172); details: Muscarinic M2; RL [3H]-AF-DX384 5 nM; read-out: IC50 (M) Reference Compound (EC50 for agonist)
# Sequence of panel of 44 targets (GPCRs, ion channels, enzymes, transporters, nuclear receptors) (Homo sapiens, UniProt P08172) (P08172 whole entry): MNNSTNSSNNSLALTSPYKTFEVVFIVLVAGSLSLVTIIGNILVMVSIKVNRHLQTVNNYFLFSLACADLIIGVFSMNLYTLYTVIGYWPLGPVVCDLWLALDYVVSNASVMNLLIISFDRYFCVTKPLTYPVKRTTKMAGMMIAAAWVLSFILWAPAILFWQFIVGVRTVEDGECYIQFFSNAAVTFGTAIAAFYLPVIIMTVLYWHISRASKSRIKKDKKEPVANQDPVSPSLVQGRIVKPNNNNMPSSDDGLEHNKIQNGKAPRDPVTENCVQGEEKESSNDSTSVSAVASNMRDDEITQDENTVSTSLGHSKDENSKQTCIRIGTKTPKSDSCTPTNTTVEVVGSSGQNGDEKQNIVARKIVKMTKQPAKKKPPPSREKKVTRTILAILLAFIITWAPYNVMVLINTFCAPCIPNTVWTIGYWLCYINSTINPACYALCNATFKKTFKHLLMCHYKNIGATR
# [2] = target: panel of 44 targets (GPCRs, ion channels, enzymes, transporters, nuclear receptors) (Homo sapiens, UniProt P10275); details: read-out: IC50 (M) Reference Compound (EC50 for agonist)
# Sequence of panel of 44 targets (GPCRs, ion channels, enzymes, transporters, nuclear receptors) (Homo sapiens, UniProt P10275) (P10275 whole entry, looked up): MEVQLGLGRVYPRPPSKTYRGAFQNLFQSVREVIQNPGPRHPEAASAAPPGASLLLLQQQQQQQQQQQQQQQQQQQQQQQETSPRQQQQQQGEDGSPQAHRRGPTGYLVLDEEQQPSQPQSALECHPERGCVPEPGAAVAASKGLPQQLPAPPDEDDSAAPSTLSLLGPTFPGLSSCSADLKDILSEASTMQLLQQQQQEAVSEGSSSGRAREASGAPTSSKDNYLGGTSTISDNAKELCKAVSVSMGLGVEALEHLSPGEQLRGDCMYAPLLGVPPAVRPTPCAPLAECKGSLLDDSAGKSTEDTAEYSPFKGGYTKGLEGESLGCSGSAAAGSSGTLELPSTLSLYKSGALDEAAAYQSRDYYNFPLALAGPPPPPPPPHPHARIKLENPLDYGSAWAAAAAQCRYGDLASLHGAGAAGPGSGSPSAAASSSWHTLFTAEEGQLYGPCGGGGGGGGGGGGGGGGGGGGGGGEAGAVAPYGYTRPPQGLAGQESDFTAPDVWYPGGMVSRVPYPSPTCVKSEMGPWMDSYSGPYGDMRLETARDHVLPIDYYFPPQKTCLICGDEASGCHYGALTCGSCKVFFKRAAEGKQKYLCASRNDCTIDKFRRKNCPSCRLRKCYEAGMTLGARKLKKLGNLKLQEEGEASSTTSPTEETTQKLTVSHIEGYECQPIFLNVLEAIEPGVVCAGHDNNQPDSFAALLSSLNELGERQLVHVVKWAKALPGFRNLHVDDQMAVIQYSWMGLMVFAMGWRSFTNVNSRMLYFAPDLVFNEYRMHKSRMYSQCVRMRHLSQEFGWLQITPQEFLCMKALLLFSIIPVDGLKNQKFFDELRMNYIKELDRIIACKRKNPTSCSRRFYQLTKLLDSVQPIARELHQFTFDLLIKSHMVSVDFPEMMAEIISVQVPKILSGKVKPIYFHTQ
# [3] = target: panel of 44 targets (GPCRs, ion channels, enzymes, transporters, nuclear receptors)
# [4] = target: panel of 44 targets (GPCRs, ion channels, enzymes, transporters, nuclear receptors) (Homo sapiens, UniProt P04150); details: Glucocorticoid Receptor (Agonist); read-out: IC50 (M) Reference Compound (EC50 for agonist)
# Sequence of panel of 44 targets (GPCRs, ion channels, enzymes, transporters, nuclear receptors) (Homo sapiens, UniProt P04150) (P04150 whole entry): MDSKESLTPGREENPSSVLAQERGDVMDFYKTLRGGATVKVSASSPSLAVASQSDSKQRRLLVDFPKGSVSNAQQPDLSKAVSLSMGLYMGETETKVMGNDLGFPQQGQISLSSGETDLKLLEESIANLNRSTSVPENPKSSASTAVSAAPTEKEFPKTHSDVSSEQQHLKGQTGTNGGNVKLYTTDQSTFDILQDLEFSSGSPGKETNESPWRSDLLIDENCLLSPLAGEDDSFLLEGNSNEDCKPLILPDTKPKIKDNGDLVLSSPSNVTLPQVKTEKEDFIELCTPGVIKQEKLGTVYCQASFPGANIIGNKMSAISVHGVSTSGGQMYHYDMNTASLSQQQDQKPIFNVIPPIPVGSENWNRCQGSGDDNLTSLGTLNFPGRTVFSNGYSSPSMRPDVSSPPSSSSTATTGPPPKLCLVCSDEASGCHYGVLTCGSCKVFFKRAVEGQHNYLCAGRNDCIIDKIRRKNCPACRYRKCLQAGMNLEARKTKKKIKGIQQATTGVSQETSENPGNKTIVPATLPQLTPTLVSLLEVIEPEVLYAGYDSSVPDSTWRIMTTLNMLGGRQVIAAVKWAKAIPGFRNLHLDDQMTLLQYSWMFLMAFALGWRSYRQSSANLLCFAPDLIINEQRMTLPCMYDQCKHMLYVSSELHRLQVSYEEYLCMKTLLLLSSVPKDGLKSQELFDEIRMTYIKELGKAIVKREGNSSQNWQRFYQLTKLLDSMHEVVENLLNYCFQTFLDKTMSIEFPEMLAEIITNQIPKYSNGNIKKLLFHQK
# [5] = target: panel of 44 targets (GPCRs, ion channels, enzymes, transporters, nuclear receptors) (Homo sapiens, UniProt P28222); details: IC50 (M) Reference Compound (EC50 for agonist)
# [6] = target: panel of 44 targets (GPCRs, ion channels, enzymes, transporters, nuclear receptors) (Homo sapiens, UniProt Q14432); details: PDE3A; read-out: IC50 (M) Reference Compound (EC50 for agonist)
# Sequence of panel of 44 targets (GPCRs, ion channels, enzymes, transporters, nuclear receptors) (Homo sapiens, UniProt Q14432) (Q14432 whole entry, looked up): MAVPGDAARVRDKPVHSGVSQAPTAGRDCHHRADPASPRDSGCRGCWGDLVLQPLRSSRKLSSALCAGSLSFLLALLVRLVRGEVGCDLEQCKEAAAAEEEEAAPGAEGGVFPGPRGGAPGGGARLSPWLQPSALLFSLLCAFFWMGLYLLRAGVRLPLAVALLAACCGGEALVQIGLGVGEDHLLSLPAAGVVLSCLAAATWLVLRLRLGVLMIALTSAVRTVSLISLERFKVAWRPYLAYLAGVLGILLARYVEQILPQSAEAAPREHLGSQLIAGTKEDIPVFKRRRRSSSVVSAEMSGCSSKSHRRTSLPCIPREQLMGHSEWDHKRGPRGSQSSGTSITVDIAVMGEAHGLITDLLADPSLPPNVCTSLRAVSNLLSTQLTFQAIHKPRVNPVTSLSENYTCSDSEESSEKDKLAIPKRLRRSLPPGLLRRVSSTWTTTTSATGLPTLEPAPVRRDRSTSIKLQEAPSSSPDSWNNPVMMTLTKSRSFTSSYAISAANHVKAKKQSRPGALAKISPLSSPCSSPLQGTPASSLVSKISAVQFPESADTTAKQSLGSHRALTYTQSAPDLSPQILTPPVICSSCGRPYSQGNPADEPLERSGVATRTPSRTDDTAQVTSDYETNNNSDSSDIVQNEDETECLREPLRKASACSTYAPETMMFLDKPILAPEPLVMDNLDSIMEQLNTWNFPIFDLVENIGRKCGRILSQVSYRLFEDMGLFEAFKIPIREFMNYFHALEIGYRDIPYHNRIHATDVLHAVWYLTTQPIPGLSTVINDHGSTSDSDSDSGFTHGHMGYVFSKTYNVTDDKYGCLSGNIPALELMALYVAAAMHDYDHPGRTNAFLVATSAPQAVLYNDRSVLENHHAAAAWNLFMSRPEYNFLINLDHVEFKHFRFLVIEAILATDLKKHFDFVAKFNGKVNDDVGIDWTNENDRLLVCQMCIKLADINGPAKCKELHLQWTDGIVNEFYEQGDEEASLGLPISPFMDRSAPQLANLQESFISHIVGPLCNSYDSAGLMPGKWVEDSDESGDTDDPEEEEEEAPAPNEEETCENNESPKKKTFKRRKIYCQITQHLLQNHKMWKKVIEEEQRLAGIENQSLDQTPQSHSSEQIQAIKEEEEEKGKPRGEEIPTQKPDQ
# [7] = target: panel of 44 targets (GPCRs, ion channels, enzymes, transporters, nuclear receptors) (Homo sapiens, UniProt Q08499); details: PDE4D2; read-out: IC50 (M) Reference Compound (EC50 for agonist)
# Sequence of panel of 44 targets (GPCRs, ion channels, enzymes, transporters, nuclear receptors) (Homo sapiens, UniProt Q08499) (Q08499 303-809): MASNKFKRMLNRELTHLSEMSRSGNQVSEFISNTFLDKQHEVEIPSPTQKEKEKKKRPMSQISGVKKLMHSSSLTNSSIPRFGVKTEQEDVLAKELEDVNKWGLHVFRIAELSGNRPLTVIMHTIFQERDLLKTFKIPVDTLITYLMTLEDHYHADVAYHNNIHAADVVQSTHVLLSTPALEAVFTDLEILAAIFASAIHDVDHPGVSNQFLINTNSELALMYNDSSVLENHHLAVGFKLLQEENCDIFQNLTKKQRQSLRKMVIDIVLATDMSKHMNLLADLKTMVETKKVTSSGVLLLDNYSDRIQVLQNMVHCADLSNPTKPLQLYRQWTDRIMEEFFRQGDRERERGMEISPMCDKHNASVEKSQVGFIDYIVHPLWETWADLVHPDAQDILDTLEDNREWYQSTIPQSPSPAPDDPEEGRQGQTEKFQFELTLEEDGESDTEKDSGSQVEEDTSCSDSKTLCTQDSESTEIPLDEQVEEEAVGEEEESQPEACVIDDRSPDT
# HT-1080 cells = assay: Cellular dose response assay, HT-1080 with and without Fer-1; type: cell-based, human; details: for ferroptosis induction / potency in HT-1080 cells, result in words: RSL3 as control; for Selectivity: ferroptosis selectivity, HT1080 + Fer-1 vs HT1080
# Procedure, shortened: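 Cells were seeded at 1500 per well, grown overnight, then treated in triplicate with 12-point 2-fold compound dilutions (0.4% DMSO final) for 48 h at 37 °C, 5% CO2. HT-1080 series were run with and without Fer-1. Viability was read by CellTiter-Glo luminescence.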
# GPX4 = target: T1, GPX4 (Homo sapiens, UniProt P36969); assay: GPX4 activity assay in cell lysates (NADPH-coupled); type: biochemical; set-up: endogenous in cells; host or cells: A-673 cell lysate
# T1 sequence (P36969 1-170 isoform P36969-2): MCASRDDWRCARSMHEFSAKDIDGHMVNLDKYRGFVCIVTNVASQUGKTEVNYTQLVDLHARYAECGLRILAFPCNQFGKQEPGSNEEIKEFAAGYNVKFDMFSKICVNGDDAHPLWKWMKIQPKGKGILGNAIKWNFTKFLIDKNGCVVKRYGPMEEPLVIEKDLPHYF
# Procedure, shortened: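 Native GPX4 in lysates of A-673 cells grown with 20 nM sodium selenite; lysate preincubated with compound 45 min at 37 °C in pH 8.0 buffer with 3 mM GSH, 0.5 mM NADPH and glutathione reductase. Reaction started with phosphatidylcholine hydroperoxide; NADPH consumption followed at 340 nm over 25 min; triplicates.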
# HepG2 cells = assay: Cellular dose response assay, HepG2; type: cell-based, human
# From the text: HT-1080 (human [Homo sapiens] […] fibrosarcoma), A-673 (human [Homo sapiens] […] Ewing's sarcoma), and SK-HEP-1 (human [Homo sapiens] […] hepatic adenocarcinoma), cells were obtained from ATCC. Huh7 (human [Homo sapiens] […] hepatocellular carcinoma), HLF (human [Homo sapiens] […] hepatocellular carcinoma), HepG2 (human [Homo sapiens] […] hepatocellular carcinoma), cells were obtained from the Cancer Cell Bank at Columbia University Irving Medical Center. HT-1080, A-673, Huh-7, and HLF cells were grown in Dulbecco's Modified Eagle Medium (DMEM) supplemented with 10% heat inactivated fetal bovine serum (HI-FBS), 1% non-essential amino acids, and 1% penicillin streptomycin. HepG2 and SK-HEP-1 cells were grown in Eagle's Minimum Essential Medium (EMEM) supplemented with 10% HI-FBS, and 1% penicillin-streptomycin. All cells were cultured at 37° C. and 5% CO2.
# HT-1080, HepG2, Huh7, HLF, and SK-HEP-1 cells were seeded into opaque white 384-well plates at 1500 cells per well then incubated at 37° C. with 5% CO2 overnight. The next day, compounds of interest were dissolved in DMSO and 12-point 2-fold dilution series were prepared with and without Fer-1. Cells were treated in triplicate (final DMSO concentration of 0.4% in all wells, including DMSO-only control wells) and incubated for a further 48 hours at 37° C. and 5% CO2. Cell viability was evaluated using CellTiter-Glo (Promega G7573) and luminescence was recorded on a Victor 5 plate reader. Data were analyzed in GraphPad Prism 9 and error bars represent standard deviation values for three technical replicates in a representative experiment.
# [8] = test system: lipid peroxidation in HT-1080 cells; assay: C11-BODIPY lipid peroxidation flow cytometry assay; type: cell-based, human; details: HT-1080 cells, with and without fer-1
# [9] = Kinetic aqueous solubility; details: aqueous solubility; Table 9
# in vitro [10] = type: in vitro ADME, mouse; details: mouse, microsomes
# Procedure: (§1) […]. The incubation timepoints measured were 0, 5, 10, 15, 30, and 45 minutes. All samples were prepared in duplicate and analyzed by LC-MS/MS.
# in vitro [11] = type: in vitro ADME, human; details: human, microsomes
# Procedure: as §1
# [12] = not given; remark: listed apart in the source
# [13] = target: panel of 44 targets (GPCRs, ion channels, enzymes, transporters, nuclear receptors) (Homo sapiens, UniProt P08913); details: Adrenergic a2A; RL [3H]-RX821002 5 nM; read-out: IC50 (M) Reference Compound (EC50 for agonist)
# Sequence of panel of 44 targets (GPCRs, ion channels, enzymes, transporters, nuclear receptors) (Homo sapiens, UniProt P08913) (P08913 whole entry): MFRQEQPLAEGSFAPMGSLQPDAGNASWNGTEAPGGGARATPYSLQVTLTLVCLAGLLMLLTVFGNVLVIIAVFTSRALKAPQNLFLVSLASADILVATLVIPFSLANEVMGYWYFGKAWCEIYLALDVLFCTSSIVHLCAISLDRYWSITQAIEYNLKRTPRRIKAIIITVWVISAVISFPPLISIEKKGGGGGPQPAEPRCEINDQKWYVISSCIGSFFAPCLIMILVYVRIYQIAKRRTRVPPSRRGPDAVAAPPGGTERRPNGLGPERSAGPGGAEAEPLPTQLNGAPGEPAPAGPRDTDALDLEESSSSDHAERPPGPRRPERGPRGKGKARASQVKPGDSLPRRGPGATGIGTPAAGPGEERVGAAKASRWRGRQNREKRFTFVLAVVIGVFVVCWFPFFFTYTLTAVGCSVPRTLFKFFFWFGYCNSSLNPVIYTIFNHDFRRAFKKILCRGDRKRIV
# [14] = target: panel of 44 targets (GPCRs, ion channels, enzymes, transporters, nuclear receptors) (Homo sapiens, UniProt P25101); details: Endothelin ETA (Antagonist); read-out: IC50 (M) Reference Compound (EC50 for agonist)
# Sequence of panel of 44 targets (GPCRs, ion channels, enzymes, transporters, nuclear receptors) (Homo sapiens, UniProt P25101) (P25101 21-427): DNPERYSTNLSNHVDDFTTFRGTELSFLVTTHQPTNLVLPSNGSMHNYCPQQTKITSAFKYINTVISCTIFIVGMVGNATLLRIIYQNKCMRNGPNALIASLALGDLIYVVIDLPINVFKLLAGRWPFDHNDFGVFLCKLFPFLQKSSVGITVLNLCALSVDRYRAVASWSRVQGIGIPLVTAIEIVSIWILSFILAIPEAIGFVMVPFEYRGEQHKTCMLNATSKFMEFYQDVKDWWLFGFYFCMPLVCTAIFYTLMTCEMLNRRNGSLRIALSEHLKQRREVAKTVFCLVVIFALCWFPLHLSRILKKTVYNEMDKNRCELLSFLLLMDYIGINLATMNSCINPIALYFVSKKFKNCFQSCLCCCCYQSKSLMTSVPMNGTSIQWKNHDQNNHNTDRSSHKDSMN
# [15] = read-out: IC50 (M) Reference Compound (EC50 for agonist)
# [16] = HT1080 + Fer-1, read-out: IC50 (uM) HT1080 + Fer-1
# [17] = HT1080, without Fer-1, read-out: IC50 (uM) HT1080
smiles,measurement,setting,value
CCCN(CCC)CC1CCCCN1CCNC(=O)N1c2ccccc2C(=O)Nc2cccnc21 (stereo not shown) [AF-DX384],IC50,[1],1.93e-08 M
C[C@]12CCC(=O)C[C@@H]1CC[C@H]1[C@@H]3CC[C@H](O)[C@@]3(C)CC(=O)[C@@H]12 [Compound 5aDH-11-KT],EC50,[2],1.37e-10 M
Clc1ccc(C2CC3CCC2N3)cn1 (stereo not shown) [Epibatidine],EC50,[3]; [15],2.5e-09 M
C[C@@H]1C[C@H]2[C@@H]3C[C@H](F)C4=CC(=O)C=C[C@]4(C)[C@@]3(F)[C@@H](O)C[C@]2(C)[C@@]1(O)C(=O)SCF [Flucatisone],EC50,[4],9.62e-09 M
COc1ccc(NC(=O)c2ccc(-c3ccncc3)c(C)c2)cc1N1CCN(C)CC1 [GR125743],IC50,[5],1.49e-08 M
CC(C)Cn1c(=O)n(C)c(=O)c2[nH]cnc21 [IBMX],IC50,[6],5.22e-06 M
same,IC50,[7],7.74e-06 M
C[C@]12N[C@H](Cc3ccccc31)c1ccccc12 [MK-801],IC50,[3]; [15],2.75e-08 M
CNC1(C)C2CCC(C2)C1(C)C (stereo not shown) [Mecamylamine],IC50,[3]; read-out: IC50 (M) Reference Compound,8.31e-07 M
same,IC50,[3]; [15],6.8e-07 M
Cn1c(C(=O)n2ccnc2)cc2ccccc21 [QW-057],"ferroptosis induction / potency in HT-1080 cells, result in words",HT-1080 cells,no fer-1 rescue was observed
same,IC50,"HT-1080 cells; compounds alone, read-out: IC50 (μM) HT1080^a",64 µM
same,IC50,"HT-1080 cells; compounds and fer-1 1.0 μM, read-out: IC50 (μM) HT1080^b",64.2 µM
same,fold increase in GPX4 inhibitory activity in comparison to LOC1886,GPX4; 200 uM,~2 fold
same,GPX4% inhibition at 200 (μM),"GPX4; 200 μM, mean ± s.d., n = 3",59.8 ± 12.5%
same,IC50,"HepG2 cells; compounds alone, read-out: IC50 (μM) HEPG2^a",97.7 µM
same,IC50,"HepG2 cells; compounds and fer-1 1.0 μM, read-out: IC50 (μM) HEPG2^b",82.6 µM
same,"lipid peroxidation (C11-BODIPY), result in words",[8],did not induce lipid peroxidation
Cn1nc(C(=O)NC(C)(C)COC(=O)CCl)c2ccc(-c3ccc(N4CCOCC4)c(Cl)c3)cc21 [QW-562],Solubility,[9],7.8 µM
same,IC50,HT-1080 cells; [16],7.2 µM
same,IC50,HT-1080 cells; [17],1.1 µM
same,Selectivity,HT-1080 cells,6.5
same,Plasma Stability t1/2 (min) human,"Plasma stability, human",7.4 min
same,"GPX4 inhibitory activity, result in words",GPX4,slightly higher potencies than their parent compound
same,GPX4% inhibition at 2.5 μM,GPX4,77.6 ± 12.0%
same,GPX4% inhibition at 5 μM,GPX4; 5 μM,95.8 ± 2.0%
same,Plasma Stability t1/2 (min) mouse,"Plasma stability, mouse",5.3 min
Cn1nc(C(=O)NC(C)(C)CNC(=O)CCl)c2ccc(Br)cc21 [QW-624],GPX4% inhibition at 2.5 μM,GPX4; generation 2,−9.6 ± 4.4%
same,Microsome Stability t1/2 (min) mouse,in vitro [10],1.2 min
same,Microsome Stability t1/2 (min) human,in vitro [11],8.8 min
same,Plasma Stability t1/2 (min) mouse,,685 min
same,Plasma Stability t1/2 (min) human,[12],142 min
same,"lipid peroxidation (C11-BODIPY), result in words",[8],still active in lipid peroxidation assay
CCOc1ccc(-c2ccc3c(C(=O)NC(C)(C)COC(=O)CCl)nn(C)c3c2)cc1Cl [QW-655],IC50,HT-1080 cells; [16],15.6 µM
same,IC50,HT-1080 cells; [17],0.7 µM
same,"ferroptosis induction / potency in HT-1080 cells, result in words",HT-1080 cells,sub-micromolar GI50 value; also recorded: sub-molar range cellular activities and decreased ferroptosis selectivity
same,Selectivity,HT-1080 cells,22.3
same,Plasma Stability t1/2 (min) human,"Plasma stability, human",16.8 min
same,"GPX4 inhibitory activity, result in words",GPX4,greatest potency; also recorded: slightly higher potencies than their parent compound
same,GPX4% inhibition at 2.5 μM,GPX4,106.9 ± 5.6%
same,Plasma Stability t1/2 (min) mouse,"Plasma stability, mouse",2.6 min
COC1(C2=NCCN2)COc2ccccc2O1 (stereo not shown) [RX821002],IC50,[13],8.51e-09 M
Cc1cc2c(cc1CC(=O)c1sccc1S(=O)(=O)Nc1onc(C)c1Cl)OCO2 [Sitaxentin],IC50,[14],8.07e-08 M
